Results from patent US20030118584A1, “Restoration of platelet aggregation by antibody administration after GPIIB/IIIa antagonist treatment” (G.D. Searle & Co., priority 1998, published 2003).

What was measured:
platelet aggregation = tested on: platelet aggregation; set-up: dose or concentration left out as unconfirmed; conditions: anesthetized dogs; for up to 210 minutes; cited from earlier work
[1] = tested on: heparinized human whole blood; test: Activated clotting time (ACT) in heparinized human whole blood; assay type: cell-based; conditions: 1.4 Units/mL heparin; varying concentrations; FIG. 1
From the text: This process can be used to calculate a standardized concentration curve for various known concentrations of anti-platelet compounds. The process can also be used to measure activated clotting times for use in calculating the ACT number for the processes of the invention.
A. Blood was drawn from a human volunteer into a syringe containing heparin. The heparin to whole blood ratio was 1:10 such that the final concentration of heparin in the syringe was 1.4 Units/mL.
B. The Hemochron™-8000 was set up to run ACT using the P-215 tubes from the same manufacturer (International Technidyne).
A. A 1 mL sample of the above heparinized blood was admixed and maintained (incubated) with 2.5-10 μl of antagonist compound or saline for 5 minutes at room temperature.
B. The Hemochron™ was started as 400 μl of the test sample was pipetted into the P-215 tube. The tube contents were gently mixed, placed into the Hemochron™ and turned one revolution until the light on the instrument came on.
C. Step B was repeated for the second channel of the instrument within 30 seconds to give an average activated clotting time. […]
The activated clotting time was first measured (in seconds) for control whole blood from each donor containing only 1.4 Units/mL of heparin. The clotting times were then measured as in Example 1 by varying concentrations of antiplatelet compounds B and D in addition to heparin for each donor. […]

[2] = Total and free plasma levels of compound B in dog (HPLC); assay type: in vivo; conditions: throughout the three bolus infusions of Mab 9F7, FIG. 11
Protocol: In a second study, a dog was treated with a capsule of 10 mg of compound A, BID for 4 days (15 mg on day 3) prior to antibody testing. […] Four hours after the last oral dose of compound A, a dose of pentobarbitol and the monoclonal […] antibody (P187-9F7) was infused by a i.v. bolus injection. Each bolus contained a 5-fold molar excess over drug plasma levels (about 50 mg of Mab 9F7). A control dog was given identical amounts of antibody without compound A oral dosing. Blood samples were collected for aggregation assays at 5, 15, 30 and 60 minutes after each bolus administration of antibody, plasma levels of Mab 9F7, and total and free plasma levels of compound B.
This method involves the extraction of compound B and an internal standard (compound F, shown hereinafter) from acidified dog plasma with a C18 solid phase extraction column. Analysis is by reverse phase high performance liquid chromatography with fluorescence detection. […] Quality control pools were prepared in dog plasma and quantified using the human calibration curve. A linear weighted (1/concentration squared) least squares regression analysis was used to quantify samples. This method was validated with a minimum quantifiable level of 1.00 ng/mL. […]
Removed the samples to be analyzed from the freezer and thawed. […] The filtrate was then analyzed by the method given below. […]

[3] = Elimination of compounds B and D from the circulation; assay type: in vivo; conditions: for Route of removal from the circulation: in vivo; for Change in elimination half-life with decreased creatinine clearance: renal impairment
From the text: In renally impaired patients, reversal of the functionality of these compounds would be especially useful in an emergency situation where rapid removal of active compound is desired.

[4] = Plasma half-life of compound B in guinea pig; assay type: in vivo
Protocol: Therefore, follow-up studies were conducted in dogs because the half-life of compounds B in this species is more similar to the human half-life than is the half-life in the guinea pig.
The half life of compound B was determined by fitting the plasma concentrations and determining the elimination rate constant ke. The half-life is calculated as t½=0.693/ke.

GPIIb/IIIa = GPIIb/IIIa (Homo sapiens, UniProt P05106+P08514); conditions: when administered; cited from earlier work

Row | Compound | Inhibition of platelet aggregation, measured ex vivo (platelet aggregation) | Effect of antiplatelet compound concentration on activated clotting time [1] | Levels of total compound B (free plus antibody bound) [2] | Route of removal from the circulation [3] | Change in elimination half-life with decreased creatinine clearance [3] | Half-life [4] | Effect on activated clotting times (GPIIb/IIIa)
1 | cyclic [D-2-aminobutyryl-N2-methyl-L-arginyl-glycyl-L-aspartyl-3-aminomethyl-benzoic acid] methanesulfonic acid salt [DMP728] | nearly complete inhibition |  |  |  |  |  | 
2 | C#C[C@H](CC(=O)O)NC(=O)CCC(=O)Nc1ccc(C(=N)N)cc1 [compound B, 3S-[[4-[[4-(aminoiminomethyl)phenyl]amino]-1,4-dioxobutyl]amino]-4-pentynoic acid] |  | directly affect the activated clotting time | increased throughout the three infusions | almost exclusively by the kidney | appreciable increases | short half-life | 
3 | N=C(N)c1ccc(N2CC[C@H](NC(=O)NCCC(=O)O)C2=O)cc1 [compound D, 3-[[[[1-[4-(aminoiminomethyl)phenyl]-2-oxo-pyrrolidin-3S-yl]amino]carbonyl]amino]propanoic acid] |  | directly affect the activated clotting time |  | almost exclusively by the kidney | appreciable increases |  | 
4 | C7E3: anti-GPIIb/IIIa antibody (Centocor) |  |  |  |  |  |  | increase of activated clotting times
